Patent US20080227752A1, “Methods to Inhibit Histone Acetyltransferase Using Glycosaminoglycans” (Trustees of Boston University, priority 2004, published 2008)
Entries after “also recorded” stand apart in the source; their conditions may differ.

What was measured:
[1] = target: T1, p300 HAT domain (Homo sapiens, UniProt Q09472); assay: In vitro HAT activity assay, biotinylated histone H4 peptide substrate, streptavidin capture; format: biochemical; conditions: for HAT inhibitory activity of modified heparins: 10 ug/ml, p300, H4 peptide (FIG. 9)
T1 construct: 20 U/mL of HAT enzyme (p300 HAT domain; from Upstate); purchased Upstate (Lake Placid, N.Y.)
T1 sequence (Q09472 1287-1663 limits assumed): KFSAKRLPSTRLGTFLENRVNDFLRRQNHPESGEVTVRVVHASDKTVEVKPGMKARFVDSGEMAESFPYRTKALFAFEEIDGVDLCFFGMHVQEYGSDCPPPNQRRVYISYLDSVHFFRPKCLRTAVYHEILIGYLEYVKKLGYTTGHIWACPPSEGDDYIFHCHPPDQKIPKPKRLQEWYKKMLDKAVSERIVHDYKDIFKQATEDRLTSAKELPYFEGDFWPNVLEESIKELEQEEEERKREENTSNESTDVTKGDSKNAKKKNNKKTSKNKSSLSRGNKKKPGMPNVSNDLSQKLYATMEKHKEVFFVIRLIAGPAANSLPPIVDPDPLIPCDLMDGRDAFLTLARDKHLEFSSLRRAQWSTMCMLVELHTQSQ
Protocol: Biotinylated histone H4 peptide (substrate) is incubated with recombinant HAT enzyme (p300 catalytic domain) and ^3H-Acetyl-CoA, resulting in the covalent transfer of ^3H-acetate to the substrate. The ^3H-acetylated substrate can be extracted using immobilized streptavidin and counted in a scintillation counter. Thus, the amount of ^3H-acetylated substrate is a direct measure of HAT enzyme activity. Additional assays for HAT activity use core histones as the substrate and the ^3H-acetylated histone reaction products were separated from ^3H-Acetyl-CoA by membrane filtration.
Various concentrations of heparin were incubated in the presence of biotinylated histone H4 peptide, recombinant p300 catalytic domain, and [^3H]-acetyl-CoA for 1 hr at 30° C. Immobilized streptavidin was used to sequester the biotinylated substrate and was counted in a scintillation counter. Data presented are means of duplicates ±1 SE and are representative of five separate experiments. The amount of [^3H] associated with the immobilized streptavidin-biotinylated substrate in the absence of HAT enzyme (negative control) was 54.2±12.0.
HAT activity was assessed in vitro as outlined in FIG. 2. In a 1.7 mL microcentrifuge tube, 100 μL of substrate (biotinylated histone H4 peptide in 50 mM Tris, pH 7.4, 1 mM EDTA; from Pierce), 100 μL of a 5 mg/mL BSA solution (in H2O), 10.5 μL of 10×HAT buffer (500 mM Tris, pH 7.4, 10 mM EDTA), 20 U/mL of HAT enzyme (p300 HAT domain; from Upstate), and 1 μCi/mL of [^3H] Acetyl-CoA (Amersham) were mixed together and the reaction was allowed to proceed at 30° C. for 1 hour. Following this incubation, 100 μL of a 1:1 slurry of immobilized streptavidin (Pierce) pre-equilibrated in 1×HAT buffer (50 mM Tris, pH 7.4, 1 mM EDTA) was added and the sample was incubated for 30 min at RT on a rotating platform. After centrifugation at 10,000 g for 4 min, the supernatant containing the excess reactants was removed and the pellet containing the acetylated substrate bound to the immobilized streptavidin was washed 3 times with 500 μL RIPA buffer (50 mM Tris, pH 7.4, 150 mM NaCl, 1 mM EDTA, 1% NP-40, 0.5% SDC, 0.1% SDS). After the final wash, the pellet was resuspended in 500 μL 1×HAT buffer, diluted in EcoLite, and counted in a scintillation counter. Because of sample volume restrictions, reaction volumes were scaled down in some experiments.

[2] = target: T2, pCAF (Homo sapiens, UniProt Q92831); assay: Core histone acetylation filter binding HAT assay, pCAF; format: biochemical; conditions: core histones; for inhibitory activity on pCAF HAT: range of concentrations tested; for 50% inhibition (IC50): 30 minutes 30° C
T2 construct: purchased BIOMOL International (Plymouth Meeting, Pa.)
T2 sequence (Q92831 whole entry): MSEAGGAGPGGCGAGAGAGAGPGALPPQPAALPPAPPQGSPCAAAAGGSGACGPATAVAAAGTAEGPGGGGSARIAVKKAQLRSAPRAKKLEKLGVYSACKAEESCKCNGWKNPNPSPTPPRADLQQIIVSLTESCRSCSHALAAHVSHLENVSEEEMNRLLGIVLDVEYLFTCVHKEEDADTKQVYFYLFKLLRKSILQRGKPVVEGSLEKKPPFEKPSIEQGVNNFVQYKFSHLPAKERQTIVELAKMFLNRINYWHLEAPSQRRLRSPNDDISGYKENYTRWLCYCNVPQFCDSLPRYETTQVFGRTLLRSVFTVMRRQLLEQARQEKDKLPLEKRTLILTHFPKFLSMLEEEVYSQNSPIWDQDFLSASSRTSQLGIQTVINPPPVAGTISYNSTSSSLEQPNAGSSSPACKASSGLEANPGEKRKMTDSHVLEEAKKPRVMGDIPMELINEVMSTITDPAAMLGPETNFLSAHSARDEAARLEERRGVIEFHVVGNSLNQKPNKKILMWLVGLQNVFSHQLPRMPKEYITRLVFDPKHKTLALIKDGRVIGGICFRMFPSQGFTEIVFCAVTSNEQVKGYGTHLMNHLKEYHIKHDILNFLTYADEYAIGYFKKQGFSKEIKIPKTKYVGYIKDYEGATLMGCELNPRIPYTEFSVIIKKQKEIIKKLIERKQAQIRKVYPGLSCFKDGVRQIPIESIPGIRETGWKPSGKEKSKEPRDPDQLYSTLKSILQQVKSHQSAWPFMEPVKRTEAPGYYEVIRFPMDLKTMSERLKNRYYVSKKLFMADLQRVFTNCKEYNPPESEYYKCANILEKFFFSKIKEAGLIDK
Protocol: (§1) In the presence of 0.5 μCi [^3H]acetyl Co A, 10 μg core histones was incubated with either 0.5 μg pCAF (filled circles, […]) or 0.83 μg p300 HAT domain (open circles, ∘) and the indicated heparin concentrations for 30 minutes at 30° C. Formation of [^3H]acetylated core histones was determined by vacuum filtration of the samples across a nitrocellulose membrane and quantitated by liquid scintillation counting. The data is expressed as the mean % Control ±SD. Background CPM in samples without added enzyme was 5781.25 while [^3H]acetylated histone CPM in samples without heparin were 16484.5 for the pCAF containing samples and 9960.5 for the p300 HAT domain samples.
10 μg core histones were incubated with 0.5 μg pCAF, 0.5 μCi [^3H]acetyl Co A and the indicated concentrations of chondroitin sulfate (filled circles, […]), dextran (open circles, ∘), D-glucosamine (filled squares, ▪), hyaluronic acid (open squares, □) or keratan sulfate (filled triangles, ▴) for 30 minutes at 30° C. 35 μl aliquots of the reaction mixtures were spotted onto nitrocellulose filter in a dot blot apparatus under vacuum to remove unincorporated [^3H]acetyl Co A. The sample wells and filters were washed with 50 mM tris pH 7.6 and the samples were processed for liquid scintillation counting. The data is expressed as the mean % Control ±SD. 100% is equal to the activity in the absence of any additives.
(§2) 10 μg core histones was incubated with 0.5 μg pCAF, 0.5 μCi [^3H]acetyl Co A and the indicated concentrations of N-Desulfated Heparin (filled circles, […]) or Fully O-Desulfated Heparin (open circles, ∘) for 30 minutes at 30° C. 35 μl aliquots of the reaction mixtures were filtered through a nitrocellulose filter in a Bio Dot Apparatus under vacuum. The wells and filter were washed with 50 mM tris pH 7.6 and the membrane was processed for liquid scintillation counting. The data is expressed as the mean % Control ±SD.
FIGS. 15A and 15B show inhibition of pCAF HAT Activity by elastase generated proteoglycans. FIG. 15A, Proteoglycans (PG) were purified from pulmonary fibroblast elastase supernatants using anion exchange chromatographic methods. Heparan sulfate proteoglycan fragments (HSPGf) were generated by treating the PG fraction with 10 mU/ml chondroitinase ABC and repurifying the fragments by anion exchange chromatography. Core histones (10 μg) were incubated with 0.5 μg pCAF, 0.5 μCi [^3H]acetyl Co A and the indicated concentrations of PG (filled squares, ▪) or HSPGf (open squares, □) for 30 minutes at 30° C. 35 μl aliquots of the reaction mixtures were filtered through a nitrocellulose filter and the membrane was processed for liquid scintillation counting. The data is expressed as the mean % Control ±SD. FIG. 15B, Proteoglycans (PG) were purified from another preparation of pulmonary fibroblast elastase supernatants. Free GAG chains (B-PG) were generated by treating the PG fraction with alkaline borohydride and were recovered by anion exchange methods. Core histones (Core histones (10 μg) were incubated with 0.5 μg pCAF, 0.5 μCi [^3H]acetyl Co A and the indicated concentrations of PG (filled squares, ▪) or B-PG (open squares, □) for 30 minutes at 30° C. 35 μl aliquots of the reaction mixtures were filtered through a nitrocellulose filter and the membrane was processed for liquid scintillation counting. The data is expressed as the mean % Control ±SD.
as §2, with “2-O-Desulfated” for “N-Desulfated”, “([…])” for “(filled circles, […])”, “6-O-Desulfated” for “Fully O-Desulfated”, “(∘)” for “(open circles, ∘)”, “±SD. […]” for “±SD.”

[3] = test system: histone H3 acetylation in aortic smooth muscle cells; assay: Histone H3 acetylation in aortic smooth muscle cells by western blot; format: cell-based, neonatal rat; conditions: 10 μg/ml, 24 h
Protocol: (§3) Primary neonatal rat fibroblasts and smooth muscle cells were established as described (Foster, J. A. et al., (1990)) and treated with heparin or N-desulfated heparin (10 μg/ml) for 24 h. Total cell extracts (100 μg protein for fibroblasts and 200 μg protein for smooth muscle cells) were generated and subjected to SDS-PAGE followed by electrotransfer to Immobilon membrane. Membranes were incubated with anti-acetylated histone H3 (Upstate) followed by enzyme linked secondary antibody. Bands were visualized with ECL.
Immobilon membranes were blocked for 1 hour at room temperature with blocking buffer containing 3% milk in tris buffered saline containing 0.1% tween-20 (TBST). The blots were rinsed twice with TBST prior to incubation with the primary antibody solutions. The blots were incubated with the appropriate antibody dilution for 1 hour at room temperature or overnight at 4° C. The blots were washed with TBST prior to incubation with the appropriate HRP-linked IgG for 1 hour at room temperature. The blots were washed with TBST prior to chemiluminescence exposure.
We also treated another cell type, aortic smooth muscle cells, with heparin to determine if this response was general or specific to the pulmonary cells.

[4] = test system: histone H3 acetylation in pulmonary fibroblasts; assay: Histone H3 acetylation in pulmonary fibroblasts by western blot; format: cell-based, neonatal rat; conditions: 10 μg/ml, 24 h
Protocol: as §3
Primary cultures of pulmonary fibroblasts were isolated from the lungs of neonatal rats using established protocols (Foster, J. A., et al., (1990) Pulmonary fibroblasts: an in vitro model of emphysema. Regulation of elastin gene expression, J Biol Chem 265, 15544-9). The cells were maintained in Dulbecco's Minimal Essential Medium supplemented with 5% fetal bovine serum, 0.1 mM non-essential amino acid solution, 100 U/ml penicillin and 100 μg/ml streptomycin. The cells were used in second passage for all experiments. Cell number determination was made based upon assay of cellular acid phosphatase levels using a previously established method (Connolly, D. T., et al., (1986) Anal. Biochem. 152, 136-140).
Immobilon membranes were blocked for 1 hour at room temperature with blocking buffer containing 3% milk in tris buffered saline containing 0.1% tween-20 (TBST). […]

[5] = target: T1, p300 HAT domain; assay: Core histone acetylation filter binding HAT assay, p300; format: biochemical; conditions: core histones, 30 minutes 30° C
Protocol: as §1
Heparin-mediated inhibition of HAT activity was determined using two independent methods. The first assay method used a modified protocol to measure the ability of pCAF or p300 to acetylate a synthetic, biotinylated peptide of histone H3 or H4 in the absence and presence of heparin or its derivatives. Commercially available pCAF or p300 HAT domain were added to an iced reactions mixture containing 3 μg biotinylated Histone H3 or H4 peptide, 50 mM tris pH 7.4, 1 mM EDTA with and without the indicated concentrations of heparin. […] The filter was allowed to air dry and the filters were processed and counted using liquid scintillation methods.

2-O desulfated heparin
HAT inhibitory activity of modified heparins [1]: retained HAT inhibitory activity; also recorded: showed reduced activity when compared to heparin
inhibitory activity on pCAF HAT [2]: did not result in significant loss of function

6-O desulfated heparin
HAT inhibitory activity of modified heparins [1]: retained HAT inhibitory activity; also recorded: showed reduced activity when compared to heparin
inhibitory activity on pCAF HAT [2]: did not result in significant loss of function

CC(=O)N[C@H]1C(O)O[C@H](CO)[C@@H](O)[C@@H]1O (stereo partly drawn) [N-acetyl glucosamine, N-Acetyl-D-glucosamine, reference compound]
inhibitory activity on pCAF HAT [2]: none of the monosaccharides showed any significant inhibitory activity

N[C@H]1C(O)O[C@H](CO)[C@@H](O)[C@@H]1O (stereo partly drawn) [glucosamine, D-glucosamine, reference compound]
inhibitory activity on pCAF HAT [2]: none of the monosaccharides showed any significant inhibitory activity

O=C[C@H](O)[C@@H](O)[C@H](O)[C@H](O)C(=O)O [glucuronic acid, reference compound]
inhibitory activity on pCAF HAT [2]: none of the monosaccharides showed any significant inhibitory activity

N-desulfated heparin
HAT inhibitory activity of modified heparins [1]: nearly eliminated HAT (p300) inhibition
50% inhibition (IC50) [2]: ~20 µg/mL

chondroitin sulfate
inhibitory activity on pCAF HAT [2]: showed inhibition

dextran [reference compound]
inhibitory activity on pCAF HAT [2]: did not show any inhibitory activity

heparin [reference compound]
inhibition of HAT activity ([1]; 34 μg/mL): almost complete inhibition
IC50 ([1]; molecular weight ~15 kD, read-out: IC50 for HAT activity, molar equivalent): ~1100 nM
50% inhibition (IC50) [2]: ~7 µg/mL
level of histone H3 acetylation [3]: significant reduction of histone H3 acetylation
level of histone H3 acetylation [4]: reduced histone H3 actetylation slightly
50% inhibition (IC50) [5]: ~5 µg/mL

hyaluronic acid
effectiveness relative to heparin and other GAGs [2]: the least effective
inhibitory activity on pCAF HAT [2]: showed inhibition

keratan sulfate
inhibitory activity on pCAF HAT [2]: showed inhibition
